Test results published in paper PMC7802075 (ACS Infectious Diseases, 2020).

These compounds were tested against T1, LmjIPCS (inositol phosphorylceramide synthase from L. major) (Leishmania major, UniProt E9AFX2) (assay: biochemical). Details: not given.
T1 sequence (E9AFX2 1-338): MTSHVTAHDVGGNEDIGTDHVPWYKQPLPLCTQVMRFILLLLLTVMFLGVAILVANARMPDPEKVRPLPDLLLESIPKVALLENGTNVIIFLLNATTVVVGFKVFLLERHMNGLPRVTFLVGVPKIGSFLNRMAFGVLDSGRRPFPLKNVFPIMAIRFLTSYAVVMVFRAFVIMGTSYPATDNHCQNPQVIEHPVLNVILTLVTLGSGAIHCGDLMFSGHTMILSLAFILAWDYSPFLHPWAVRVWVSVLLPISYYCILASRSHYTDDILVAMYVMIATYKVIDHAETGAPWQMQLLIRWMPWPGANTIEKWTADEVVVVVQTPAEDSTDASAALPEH
Assay type: biochemical
Set-up: inhibition: dose or concentration left out as unconfirmed
With Oc1ncnc2[nH]ncc12 [ALLOPURINOL] the “20mM inhibition LmjIPCS” value was 56%. For N=C(NCCC[C@H](N)C(=O)O)N[N+](=O)[O-] [N (g)-NITRO-L-ARGININE], the “20mM inhibition LmjIPCS” value was 1.68%. O=C(O)CC[N+](=O)[O-] [BOVINOCIDIN] was tested, and the “20mM inhibition LmjIPCS” value was 21%. In the case of CC(=O)OCC(=O)[C@@]1(O)CC[C@H]2[C@@H]3CCC4=CC(=O)CC[C@]4(C)[C@H]3C(=O)C[C@@]21C [CORTISONE ACETATE], the “20mM inhibition LmjIPCS” value is reported as 62%. For O=[N+]([O-])c1cc(O)c(O)c([N+](=O)[O-])c1 [3,5-DINITROCATECHOL], the “20mM inhibition LmjIPCS” value was 8%. With Cc1cccc(C)c1NC(=O)C1CCCCN1C (centres unmarked) [MEPIVACAINE] the “20mM inhibition LmjIPCS” value was 55%. In the case of CCCC(C)(COC(N)=O)COC(=O)NC(C)C (centres unmarked) [CARISOPRODOL], the “20mM inhibition LmjIPCS” value is reported as 52%. With Cc1ccc(/C(=C\CN2CCCC2)c2ccccn2)cc1 [TRIPROLIDINE] the “20mM inhibition LmjIPCS” value was 42%. For CC(C)Cn1c(=O)n(C)c(=O)c2[nH]cnc21 [3-ISOBUTYL-1-METHYLXANTHINE], the “20mM inhibition LmjIPCS” value was 11%. Oc1c(Cl)cc(Cl)c2cccnc12 [CHLOROXINE] was tested, and the “20mM inhibition LmjIPCS” value was 37%. For Oc1c(Cl)cc(Cl)cc1Sc1cc(Cl)cc(Cl)c1O [BITHIONOL], the “20mM inhibition LmjIPCS” value was 41%. In the case of Cc1ccsc1/C=C/C1=NCCCN1C [MORANTEL], the “20mM inhibition LmjIPCS” value is reported as 60%. For CO/N=C(\C(=O)N[C@@H]1C(=O)N2C(C(=O)OCOC(=O)C(C)(C)C)=C(/C=C\c3scnc3C)CS[C@H]12)c1csc(N)n1 [CEFDITORIN PIVOXIL], the “20mM inhibition LmjIPCS” value was 10%. For CCN(CC)CCOC(=O)C(Cc1cccc2ccccc12)CC1CCCO1 (centres unmarked) [NAFRONYL], the “20mM inhibition LmjIPCS” value was 46%. In the case of MERBROMIN, the “20mM inhibition LmjIPCS” value is reported as -21%. For CC[C@H](C)C(=O)O[C@H]1C[C@@H](C)C=C2C=C[C@H](C)[C@H](CC[C@@H]3C[C@@H](O)CC(=O)O3)[C@H]21 [LOVASTATIN], the “20mM inhibition LmjIPCS” value was 41%. CN1CCCN=C1COC(=O)C(O)(c1ccccc1)C1CCCCC1 (centres unmarked) [OXYPHENCYCLIMINE] was tested, and the “20mM inhibition LmjIPCS” value was 53%. For N[C@@H](Cc1c[nH]c2ccccc12)C(=O)O [TRYPTOPHAN], the “20mM inhibition LmjIPCS” value was 34%. O=C(/C=C/c1ccc(O)c(O)c1)O[C@H](Cc1ccc(O)c(O)c1)C(=O)O [ROSMARINIC ACID] was tested, and the “20mM inhibition LmjIPCS” value was 58%. CCN(CC)CCCC(C)Nc1c2ccc(Cl)cc2nc2ccc(OC)cc12 (centres unmarked) [QUINACRINE] was tested, and the “20mM inhibition LmjIPCS” value was 59%. CCCCCCCCCCC[C@@H](C[C@@H]1OC(=O)[C@H]1CCCCCC)OC(=O)[C@H](CC(C)C)NC=O [ORLISTAT] was tested, and the “20mM inhibition LmjIPCS” value was 66%.

Same assay, conditions: NINDS set screen, single concentration printed as 20mM
For CC(=O)Oc1ccc2c(c1)CC[C@@H]1[C@@H]2CC[C@]2(C)[C@@H](O)CC[C@@H]12 [ESTRADIOL ACETATE], the “20mM inhibition LmjIPCS” value was 68%. With CC(C)(C)CC(C)(C)c1ccc(O)c(Cc2ccc(Cl)cc2Cl)c1 [CLOFOCTOL] the “20mM inhibition LmjIPCS” value was 65%. For Oc1ccc(Cl)c2cccnc12 [CLOXYQUIN], the “20mM inhibition LmjIPCS” value was 59%. In the case of CC[C@H]1OC(=O)[C@H](C)[C@@H](O[C@H]2C[C@@](C)(OC)[C@@H](O)[C@H](C)O2)[C@H](C)[C@@H](O[C@@H]2O[C@H](C)C[C@H](N(C)C)[C@H]2O)[C@](C)(O)C[C@@H](C)/C(=N\OCOCCOC)[C@H](C)[C@@H](O)[C@]1(C)O [ROXITHROMYCIN], the “20mM inhibition LmjIPCS” value is reported as 59%. CN(C)CCOC(c1ccc(Cl)cc1)c1ccccn1 (centres unmarked) [CARBINOXAMINE] was tested, and the “20mM inhibition LmjIPCS” value was 36%. Nc1nc(N)c2nc(-c3ccccc3)c(N)nc2n1 was tested, and the “20mM inhibition LmjIPCS” value was 36%. CN1CCCC(n2nc(Cc3ccc(Cl)cc3)c3ccccc3c2=O)CC1 (centres unmarked) [AZELASTINE] was tested, and the “20mM inhibition LmjIPCS” value was 56%. For C#CCCCCCCCCCCCC(=O)CC(O)COC(C)=O (centres unmarked) [AVOCADYNONE ACETATE], the “20mM inhibition LmjIPCS” value was 67%.

Same assay, conditions: NINDS set screen; read-out: inhibition LmjIPCS
CNC1(C)C2CCC(C2)C1(C)C (centres unmarked) [MECAMYLAMINE] was tested, and the inhibition was 17%. CNC[C@H](O)c1cccc(O)c1 [PHENYLEPHRINE] showed an inhibition of 25%. In the case of COc1ccc2cc(CCC(C)=O)ccc2c1 [NABUMETONE], the inhibition is reported as 12%. With C=CCSCC1Nc2cc(Cl)c(S(N)(=O)=O)cc2S(=O)(=O)N1 (centres unmarked) [ALTHIAZIDE] the inhibition was 11%. OCCN(CCO)c1nc(N2CCCCC2)c2nc(N(CCO)CCO)nc(N3CCCCC3)c2n1 [DIPYRIDAMOLE] was tested, and the inhibition was -11%. Compound CC1(C)O[C@@H]2[C@@H](CO[C@@]3(COS(N)(=O)=O)OC(C)(C)O[C@@H]23)O1 [TOPIRAMATE] has an inhibition of 16%.

Same assay, conditions: read-out: 20mM inhibition LmjIPCS
For Cc1cc(CC(=O)O)n(C)c1C(=O)c1ccc(Cl)cc1 [ZOMEPIRAC], the inhibition at 20000 µM was 10%. Work on O=C(O)CCC(=O)c1ccc(-c2ccccc2)cc1 [FENBUFEN] yielded an inhibition at 20000 µM of 12%. For NCCCCNCCCN [SPERMIDINE], the inhibition at 20000 µM was 12%. In the case of CC[N+](CC)(CC)CCOc1cccc(OCC[N+](CC)(CC)CC)c1OCC[N+](CC)(CC)CC [GALLAMINE TRIETHIODIDE], the inhibition at 20000 µM is reported as -1.76%. In the case of O=C1C=C2C(=CCOC2O)O1 (centres unmarked) [PATULIN], the inhibition at 20000 µM is reported as 0.294%. Work on C=C1c2cccc(O)c2C(=O)C2=C(O)[C@]3(O)C(=O)C(C(N)=O)=C(O)[C@@H](N(C)C)[C@@H]3[C@@H](O)[C@H]12 [METHACYCLINE] yielded an inhibition at 20000 µM of 33%. Work on O=C(O)c1cn(C2CC2)c2cc(N3CCNCC3)c(F)cc2c1=O [CIPROFLOXACIN] yielded an inhibition at 20000 µM of 3%. COC1=C[C@@H]2[C@@H]3Cc4ccc(OC)c(O)c4[C@]2(CCN3C)CC1=O [SINOMENINE] was tested, and the inhibition at 20000 µM was 8%. In the case of O=C(O)c1cccnc1C(=O)O [QUINOLINIC ACID], the inhibition at 20000 µM is reported as 5.51%. Compound O[C@@H]1CCCC[C@H]1N1CCC(c2ccccc2)CC1 (racemic) [VESAMICOL] has an inhibition at 20000 µM of 14%. NC(=O)N/N=C/c1ccc([N+](=O)[O-])o1 [NITROFURAZONE] was tested, and the inhibition at 20000 µM was 14%. Compound O=NN(CCCl)C(=O)NCCCl [CARMUSTINE] has an inhibition at 20000 µM of 10%. Work on C#C[C@]1(O)CC[C@H]2[C@@H]3CCC4=CC(=O)CC[C@]4(C)[C@H]3CC[C@@]21C [ETHISTERONE] yielded an inhibition at 20000 µM of 2.43%. In the case of CCOC(=O)[N-]c1cn(N2CCOCC2)n[o+]1 [MOLSIDOMINE], the inhibition at 20000 µM is reported as -0.951%. Compound COc1ccc(C(CN(C)C)C2(O)CCCCC2)cc1 (centres unmarked) [VENLAFAXINE] has an inhibition at 20000 µM of 26%. Work on O=C(Cc1cccs1)N[C@@H]1C(=O)N2C(C(=O)[O-])=C(C[n+]3ccccc3)CS[C@H]12 [CEPHALORIDINE] yielded an inhibition at 20000 µM of 22%. Compound Oc1ccc(O)cc1 [HYDROQUINONE] has an inhibition at 20000 µM of -2.33%. Compound COc1cc2c(c(OC)c1OC)-c1ccc(=O)c(O)cc1[C@@H](NC(C)=O)CC2 [COLCHICEINE] has an inhibition at 20000 µM of 9%. Compound O=S(=O)(O)CCS [MESNA] has an inhibition at 20000 µM of -0.783%. COc1ccc2c(c1OC)C(=O)OC2[C@H]1c2cc3c(cc2CCN1C)OCO3 (stereo in doubt) [1R,9S-HYDRASTINE] showed an inhibition at 20000 µM of 10%. CC(=O)NC(C(=O)O)C(C)(C)SN=O (centres unmarked) was tested, and the inhibition at 20000 µM was 9%. Work on CN[C@@H](C)[C@@H](O)c1ccccc1 [PSEUDOEPHEDRINE] yielded an inhibition at 20000 µM of 2.14%. In the case of O=C1c2ccccc2-c2cccc3cccc1c23 [BENZANTHRONE], the inhibition at 20000 µM is reported as 16%. COc1ccc2c3c1O[C@H]1C[C@@H](O)C=C[C@@]31CCN(C)C2 [GALANTHAMINE] showed an inhibition at 20000 µM of 2.62%.

Same assay, conditions: read-out: inhibition LmjIPCS
COc1c(C)c2c(c(O)c1C/C=C(\C)CCC(=O)O)C(=O)OC2 [MYCOPHENOLIC ACID] showed an inhibition of 4%. Work on CC(=O)CCCCn1c(=O)c2c(ncn2C)n(C)c1=O [PENTOXIFYLLINE] yielded an inhibition of 5.62%. COc1ccc2c(c1)c(CC(=O)O)c(C)n2C(=O)c1ccc(Cl)cc1 [INDOMETHACIN] gave an inhibition of -3.42%. Work on COC1=CC(=O)C[C@@H](C)[C@]12Oc1c(Cl)c(OC)cc(OC)c1C2=O [GRISEOFULVIN] yielded an inhibition of 28%. With CCc1ccc(CCOc2ccc(CC3SC(=O)NC3=O)cc2)nc1 (centres unmarked) [PIOGLITAZONE] the inhibition was 9%. Work on NS(=O)(=O)c1cc2c(cc1Cl)NCNS2(=O)=O [HYDROCHLOROTHIAZIDE] yielded an inhibition of 13%. For CCCC(CCC)C(=O)O [VALPROATE SODIUM], the inhibition was 0.506%. Work on NC(=O)N1c2ccccc2CC(=O)c2ccccc21 [OXCARBAZEPINE] yielded an inhibition of -4%. With CC(C)NCC(O)c1ccc(O)c(O)c1 (centres unmarked) [ISOPROTERENOL] the inhibition was 11%. In the case of COC(=O)C1=C(C)NC(C)=C(C(=O)OCCN(C)Cc2ccccc2)C1c1cccc([N+](=O)[O-])c1 (centres unmarked) [NICARDIPINE], the inhibition is reported as -15%. In the case of CCN(CC)CCNC(=O)c1cc(Cl)c(N)cc1OC [METOCLOPRAMIDE], the inhibition is reported as 6%. With CN1C(C(=O)Nc2ccccn2)=C(O)c2sccc2S1(=O)=O [TENOXICAM] the inhibition was 7.55%. Compound C[C@@]12C[C@@]3(O)O[C@@H](O1)[C@]1(COC(=O)c4ccccc4)[C@H]3C[C@@]12O[C@@H]1O[C@H](CO)[C@@H](O)[C@H](O)[C@H]1O [PEONIFLORIN] has an inhibition of 12%. CN1Cc2c(N)cccc2C(c2ccccc2)C1 (centres unmarked) [NOMIFENSINE] gave an inhibition of 5%. For CC(=O)N(O)CCCCCNC(=O)CCC(=O)N(O)CCCCCNC(=O)CCC(=O)N(O)CCCCCN [DEFEROXAMINe], the inhibition was -4.52%. With O=c1oc2ccccc2c(O)c1Cc1c(O)c2ccccc2oc1=O [DICUMAROL] the inhibition was -3%.

Same assay, conditions: screening of NINDS set, sheet Screen 1; read-out: inhibition LmjIPCS
For COc1ccc(C2C(=O)c3ccccc3C2=O)cc1 [ANISINDIONE], the inhibition was 10%. Compound O=C(O)c1cc(O)c2ccc(Cl)cc2n1 [7-CHLOROKYNURENIC ACID] has an inhibition of 9%. For CC[C@H]1OC(=O)[C@H](C)[C@@H](O[C@H]2C[C@@](C)(OC)[C@@H](O)[C@H](C)O2)[C@H](C)[C@@H](O[C@@H]2O[C@H](C)C[C@H](N(C)C)[C@H]2O)[C@](C)(OC)C[C@@H](C)C(=O)[C@H](C)[C@@H](O)[C@]1(C)O [CLARITHROMYCIN], the inhibition was 5.71%. With Cc1ccccc1OCC(O)CO (centres unmarked) [MEPHENESIN] the inhibition was 3.35%. Work on CSC(N)=NCCC[C@H](N)C(=O)O [S-METHYL-L-THIOCITRULLINE ACETATE] yielded an inhibition of 10%.
